From patent US20160222056A1, “SUBSTITUTED PHENYLALANINE DERIVATIVES” (BAYER PHARMA AKTIENGESELLSCHAFT, priority 2013, published 2016) come the findings set out here.

In one assay the target is T1, human factor XIa (Homo sapiens, UniProt P03951).
T1 construct: purchased Kordia
In words: Measurement of FXIa inhibition (fluorogenic peptide substrate). In kind it is biochemical. Particulars: human factor XIa from Kordia, substrate Boc-Glu(OBzl)-Ala-Arg-AMC, 30 min at 22° C.; read-out: IC50 (FXIa inhibition). How it is done:
To determine the factor XIa inhibition of the substances according to the invention, a biochemical test system is used which utilizes the reaction of a peptidic factor XIa substrate to determine the enzymatic activity of human factor XIa. Here, factor XIa cleaves from the peptic factor XIa substrate the C-terminal aminomethylcoumarin (AMC), the fluorescence of which is measured. The determinations are carried out in microtitre plates.
Test substances are dissolved in dimethyl sulphoxide and serially diluted in dimethyl sulphoxide (3000 μM to 0.0078 μM; resulting final concentrations in the test: 50 μM to 0.00013 μM). In each case 1 μl of the diluted substance solutions are placed into the wells of white microtitre plates from Greiner (384 wells). Subsequently, the following are added successively: 20 μl of assay buffer (50 mmol/1 Tris buffer pH 7.4; 100 mmol/1 sodium chloride; 5 mmol/1 calcium chloride; 0.1% bovine serum albumin) and 20 μl of factor XIa from Kordia (0.45 nM in assay buffer). After 15 min of incubation, the enzyme reaction is started by addition of 20 μl of the factor XIa substrate Boc-Glu(OBzl)-Ala-Arg-AMC dissolved in assay buffer (10 μM in assay buffer) from Bachem, the mixture is incubated at room temperature (22° C.) for 30 min and fluorescence is then measured (excitation: 360 nm, emission: 460 nm). The measured emissions of the test batches with test substance are compared to those of control batches without test substance (only dimethyl sulphoxide instead of test substance in dimethyl sulphoxide), and the IC50 values are calculated from the concentration/activity relationships.

Another assay relates to human and animal plasma. In words: Anticoagulatory activity: activated partial thromboplastin time (aPTT) in plasma. In kind it is biochemical. Particulars: in vitro in plasma, C.K. Prest kit, 37° C. for 3 minutes; plasma species of Table B not stated. How it is done: The anticoagulatory activity of the test substances is determined in vitro in human and animal plasma (for example mouse, rat, rabbit, pig and dog plasma). To this end, blood is drawn off in a mixing ratio of sodium citrate/blood of 1:9 using a 0.11 molar sodium citrate solution as receiver. Immediately after the blood has been drawn off, it is mixed thoroughly and centrifuged at about 4000 g for 15 minutes. The supernatant is pipetted off.
The activated partial thromboplastin time (aPTT) is determined in the presence of varying concentrations of test substance or the corresponding solvent using a commercial test kit (C.K. Prest from Diagnostica Stago). The test compounds are incubated with the plasma and the PTT reagent (cephalin, kaolin) at 37° C. for 3 minutes. Coagulation is then started by addition of 25 mM aqueous calcium chloride, and the time when coagulation occurs is determined. The concentration of test substance which brings about a 1.5-fold extension of the aPTT is determined.

Counter-ions that a name gives are not always drawn.

T1 sequence (P03951 388-625 limits assumed): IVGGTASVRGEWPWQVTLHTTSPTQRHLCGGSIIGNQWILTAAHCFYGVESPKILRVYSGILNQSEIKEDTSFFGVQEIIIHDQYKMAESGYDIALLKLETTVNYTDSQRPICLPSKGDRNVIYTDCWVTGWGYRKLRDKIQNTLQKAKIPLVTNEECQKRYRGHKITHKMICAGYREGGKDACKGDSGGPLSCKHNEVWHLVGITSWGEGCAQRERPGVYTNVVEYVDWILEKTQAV
T1 sequence (P03951 19-387 partner limits assumed): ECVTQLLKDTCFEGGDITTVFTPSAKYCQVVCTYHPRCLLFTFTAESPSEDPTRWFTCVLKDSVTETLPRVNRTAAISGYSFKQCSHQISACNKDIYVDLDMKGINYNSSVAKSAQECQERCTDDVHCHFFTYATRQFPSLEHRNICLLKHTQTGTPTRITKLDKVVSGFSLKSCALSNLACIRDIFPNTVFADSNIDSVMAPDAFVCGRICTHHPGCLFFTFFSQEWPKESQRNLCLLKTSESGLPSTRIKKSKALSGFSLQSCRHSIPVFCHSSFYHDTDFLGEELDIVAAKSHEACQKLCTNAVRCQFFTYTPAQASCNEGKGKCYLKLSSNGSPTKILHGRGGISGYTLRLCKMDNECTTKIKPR

Broadly, the IC50 is the concentration that gives 50% inhibition. Take `Cc1nc(C(=O)N[C@H]2CCNC2)ccc1-c1ccc(C[C@H](NC(=O)[C@H]2CC[C@H](CN)CC2)C(=O)Nc2ccc3[nH]c(=O)[nH]c3c2)cc1` [Example 14, N-alpha-{[trans-4-(Aminomethyl)cyclohexyl]carbonyl}-4-{2-methyl-6-[(3S)-pyrrolidin-3-ylcarbamoyl]pyridin-3-yl}-N-(2-oxo-2,3-dihydro-1H-benzimidazol-5-yl)-L-phenylalaninamide hydrochloride]: at human factor XIa, the IC50 was determined as 30 nM. The “aPTT (concentration of test substance which brings about a 1.5-fold extension of the aPTT)” value with human and animal plasma was found to be 0.08 µmol/L.
On the same counts, the results for `CCN(CC)C1CCC(NC(=O)c2cc(C)c(-c3ccc(C[C@H](NC(=O)[C@H]4CC[C@H](CN)CC4)C(=O)Nc4ccc(-c5nnn[nH]5)cc4)cc3)cn2)CC1` (stereo partly drawn) [Example 7, N-alpha-{[trans-4-(Aminomethyl)cyclohexyl]carbonyl}-4-(6-{[4-(diethylamino)cyclohexyl]-carbamoyl}-4-methylpyridin-3-yl)-N-[4-(1H-tetrazol-5-yl)phenyl]-L-phenylalaninamide hydrochloride] are 2.6 nM and 0.04 µmol/L.
On to `Cc1cc(C(=O)N[C@@H]2CCCNC2=O)ncc1-c1ccc(C[C@H](NC(=O)[C@H]2CC[C@H](CN)CC2)C(=O)Nc2ccc3[nH]c(=O)[nH]c3c2)cc1` [Example 28, N-alpha-{[trans-4-(Aminomethyl)cyclohexyl]carbonyl}-4-(4-methyl-6-{[(3R)-2-oxopiperidin-3-yl]carbamoyl}pyridin-3-yl)-N-(2-oxo-2,3-dihydro-1H-benzimidazol-5-yl)-L-phenylalaninamide hydrochloride], for which the IC50 at human factor XIa is 20 nM. For the same compound, the “aPTT (concentration of test substance which brings about a 1.5-fold extension of the aPTT)” value with human and animal plasma turned out to be 0.39 µmol/L.
For `Cc1cc(C(=O)N2CCN(C)CC2)ncc1-c1ccc(C[C@H](NC(=O)[C@H]2CC[C@H](CN)CC2)C(=O)Nc2ccc(-c3nnn[nH]3)cc2)cc1` [Example 33, N-alpha-{[trans-4-(Aminomethyl)cyclohexyl]carbonyl}-4-{4-methyl-6-[(4-methylpiperazin-1-yl)carbonyl]pyridin-3-yl}-N-[4-(1H-tetrazol-5-yl)phenyl]-L-phenylalaninamide hydrochloride] the same measures were 4.2 nM and 0.44 µmol/L.
For `Cc1nc(C(=O)NC2CCC(O)CC2)ccc1-c1ccc(C[C@H](NC(=O)[C@H]2CC[C@H](CN)CC2)C(=O)Nc2ccc(-c3nn[nH]n3)cc2)cc1` (stereo partly drawn) [Example 22, N-alpha-{[trans-4-(Aminomethyl)cyclohexyl]carbonyl}-4-{6-[(4-hydroxycyclohexyl)carbamoyl]-2-methylpyridin-3-yl}-N-[4-(2H-tetrazol-5-yl)phenyl]-L-phenylalaninamide hydrochloride], the IC50 on human factor XIa amounted to 2.5 nM. The “aPTT (concentration of test substance which brings about a 1.5-fold extension of the aPTT)” value in the assay with human and animal plasma stood at 0.16 µmol/L.
As for `CCN(CC)CCNC(=O)c1ccc(-c2ccc(C[C@H](NC(=O)[C@H]3CC[C@H](CN)CC3)C(=O)Nc3ccc(-c4nn[nH]n4)cc3)cc2)c(C(F)(F)F)n1` [Example 1, N-alpha-{[trans-4-(Aminomethyl)cyclohexyl]carbonyl}-4-[6-{[2-(diethylamino)ethyl]carbamoyl}-2-(trifluoromethyl)pyridin-3-yl]-N-[4-(2H-tetrazol-5-yl)phenyl]-L-phenylalaninamide hydrochloride], the half-maximal inhibitory concentration (IC50) at human factor XIa stood at 2 nM. For the same compound, the “aPTT (concentration of test substance which brings about a 1.5-fold extension of the aPTT)” value in the assay with human and animal plasma is 0.1 µmol/L.
On the same counts, the results for `Cc1cc(C(=O)N[C@H]2CC[C@H](N3CCOCC3)CC2)ncc1-c1ccc(C[C@H](NC(=O)[C@H]2CC[C@H](CN)CC2)C(=O)Nc2ccc(-c3nnn[nH]3)cc2)cc1` [Example 13, N-alpha-{[trans-4-(Aminomethyl)cyclohexyl]carbonyl}-4-(4-methyl-6-{[trans-4-(morpholin-4-yl)cyclohexyl]carbamoyl}pyridin-3-yl)-N-[4-(1H-tetrazol-5-yl)phenyl]-L-phenylalaninamide hydrochloride] are 0.9 nM and 0.08 µmol/L.
For the compound `CCN(CC)CCCNC(=O)c1ccc(-c2ccc(C[C@H](NC(=O)[C@H]3CC[C@H](CN)CC3)C(=O)Nc3ccc(-c4nn[nH]n4)cc3)cc2)c(C)n1` [Example 24, N-alpha-{[trans-4-(Aminomethyl)cyclohexyl]carbonyl}-4-(6-{[3-(diethylamino)propyl]-carbamoyl}-2-methylpyridin-3-yl)-N-[4-(2H-tetrazol-5-yl)phenyl]-L-phenylalaninamide hydrochloride], on human factor XIa, the 50% inhibitory concentration (IC50) turned out to be 6 nM. For the same compound, the “aPTT (concentration of test substance which brings about a 1.5-fold extension of the aPTT)” value with human and animal plasma is 0.17 µmol/L.
Regarding `Cc1cc(C(=O)N[C@@H]2CCCNC2=O)ncc1-c1ccc(C[C@H](NC(=O)[C@H]2CC[C@H](CN)CC2)C(=O)Nc2ccc(-c3nnn[nH]3)cc2)cc1` [Example 21, N-alpha-{[trans-4-(Aminomethyl)cyclohexyl]carbonyl}-4-(4-methyl-6-{[(3R)-2-oxopiperidin-3-yl]carbamoyl}pyridin-3-yl)-N-[4-(1H-tetrazol-5-yl)phenyl]-L-phenylalaninamide hydrochloride], on human factor XIa, the half-maximal inhibitory concentration (IC50) was found to be 1.3 nM. For the same compound, the “aPTT (concentration of test substance which brings about a 1.5-fold extension of the aPTT)” value with human and animal plasma was determined as 0.15 µmol/L.
Turning to `Cc1nc(C(=O)NC2CCC(N(C)C)CC2)ccc1-c1ccc(C[C@H](NC(=O)[C@H]2CC[C@H](CN)CC2)C(=O)Nc2ccc3[nH]c(=O)[nH]c3c2)cc1` (stereo partly drawn) [Example 27, N-alpha-{[trans-4-(Aminomethyl)cyclohexyl]carbonyl}-4-(6-{[4-(dimethylamino)cyclohexyl]-carbamoyl}-2-methylpyridin-3-yl)-N-(2-oxo-2,3-dihydro-1H-benzimidazol-5-yl)-L-phenylalaninamide hydrochloride], at human factor XIa, the IC50 worked out at 19 nM. For the same compound, the “aPTT (concentration of test substance which brings about a 1.5-fold extension of the aPTT)” value with human and animal plasma is 0.22 µmol/L.
Regarding `Cc1cc(C(=O)N2CC(C)NC(C)C2)ncc1-c1ccc(C[C@H](NC(=O)C2CCC(CN)CC2)C(=O)Nc2ccc(-c3nnn[nH]3)cc2)cc1` (stereo partly drawn) [Example 6, N-alpha-{[trans-4-(Aminomethyl)cyclohexyl]carbonyl}-4-{6-[(3,5-dimethylpiperazin-1-yl)carbonyl]-4-methylpyridin-3-yl}-N-[4-(1H-tetrazol-5-yl)phenyl]-L-phenylalaninamide hydrochloride], the half-maximal inhibitory concentration (IC50) at human factor XIa is 4.1 nM. Moreover, the “aPTT (concentration of test substance which brings about a 1.5-fold extension of the aPTT)” value with human and animal plasma was 0.04 µmol/L.
As for `Cc1nc(C(=O)NC2CCN(C)CC2)ccc1-c1ccc(C[C@H](NC(=O)[C@H]2CC[C@H](CN)CC2)C(=O)Nc2ccc(-c3nnn[nH]3)cc2)cc1` [Example 30, N-alpha-{[trans-4-(Aminomethyl)cyclohexyl]carbonyl}-4{-2-methyl-6-[(1-methylpiperidin-4-yl)carbamoyl]pyridin-3-yl}-N-[4-(1H-tetrazol-5-yl)phenyl]-L-phenylalaninamide hydrochloride], the IC50 at human factor XIa stood at 5.5 nM.
`Cc1cc(C(=O)NC2CC3CCC(C2)N3)ncc1-c1ccc(CC(NC(=O)C2CCC(CN)CC2)C(=O)Nc2ccc(-c3nnn[nH]3)cc2)cc1` [Example 10, N-alpha-{[trans-4-(Aminomethyl)cyclohexyl]carbonyl}-4-{6-[(1R,5S)-8-azabicyclo[3.2.1]oct-3-ylcarbamoyl]-4-methylpyridin-3-yl}-N-[4-(1H-tetrazol-5-yl)phenyl]-L-phenylalaninamide hydrochloride]: on human factor XIa, the IC50 stood at 3 nM. For the same compound, the “aPTT (concentration of test substance which brings about a 1.5-fold extension of the aPTT)” value in the assay on human and animal plasma worked out at 0.07 µmol/L.
As for `Cc1cc(C(=O)N2CCNC(=O)C2)ncc1-c1ccc(C[C@H](NC(=O)[C@H]2CC[C@H](CN)CC2)C(=O)Nc2ccc(-c3nnn[nH]3)cc2)cc1` [Example 32, N-alpha-{[trans-4-(Aminomethyl)cyclohexyl]carbonyl}-4-{4-methyl-6-[(3-oxopiperazin-1-yl)carbonyl]pyridin-3-yl}-N-[4-(1H-tetrazol-5-yl)phenyl]-L-phenylalaninamide hydrochloride], the half-maximal inhibitory concentration (IC50) on human factor XIa amounted to 1.8 nM.
With `Cc1nc(C(=O)N[C@H]2CC[C@H](N)CC2)ccc1-c1ccc(C[C@H](NC(=O)[C@H]2CC[C@H](CN)CC2)C(=O)Nc2ccc(-c3nn[nH]n3)cc2)cc1` [Example 31, 4-{6-[(trans-4-Aminocyclohexyl)carbamoyl]-2-methylpyridin-3-yl}-N-alpha-{[trans-4-(aminomethyl)cyclohexyl]carbonyl}-N-[4-(2H-tetrazol-5-yl)phenyl]-L-phenylalaninamide hydrochloride], on human factor XIa, the IC50 is 1.9 nM.
